Test results reported in ChEMBL document CHEMBL3044589, “Effects of propylene oxide doses on Cyperus and Belonolaimus control and nutrient absorption in tomato” (2007).
The source made the active and inactive calls. The calls are words filed in the database; no cut-off is given here.

How the values were obtained:
Cyperus [1] = test: Herbicidal activity against Cyperus at 775 l/ha applied 12 days prior to tomato transplantation measured after 8 weeks relative to control; type: functional
Solanum lycopersicum [2] = test: Increase in Solanum lycopersicum (tomato) plant yield at 190 to 950 l/ha applied 12 days prior to transplantation measured after 12 to 14 weeks; type: functional, organism-based
Solanum lycopersicum [3] = test: Increase in Solanum lycopersicum (tomato) foliar potassium concentration at 190 to 950 l/ha applied 12 days prior to transplantation measured after 4 weeks (reference value: 2.38%); type: functional
Solanum lycopersicum [4] = test: Increase in Solanum lycopersicum (tomato) plant vigor at 190 to 950 l/ha applied 12 days prior to transplantation measured after 10 weeks; type: functional, organism-based
Cyperus [5] = test: Herbicidal activity against Cyperus at 850 l/ha applied 12 days prior to tomato transplantation measured after 14 weeks relative to control; type: functional
Solanum lycopersicum [6] = test: Increase in Solanum lycopersicum (tomato) foliar phosphorus concentration at 190 to 950 l/ha applied 12 days prior to transplantation measured after 4 weeks (reference value: 0.31%); type: functional
Belonolaimus = test: Nematocidal activity against Belonolaimus at 190 to 950 l/ha applied 12 days prior to tomato transplantation measured after 14 weeks; type: functional, organism-based
Solanum lycopersicum [7] = test: Increase in Solanum lycopersicum (tomato) plant yield at […] applied 12 days prior to transplantation measured after 12 to 14 weeks relative to untreated-control; type: functional
Cyperus [8] = test: Herbicidal activity against Cyperus at 190 to 950 l/ha applied 12 days prior to tomato transplantation measured after 4 to 14 weeks relative to control; type: functional, organism-based
Cyperus [9] = test: Herbicidal activity against Cyperus at 190 l/ha applied 12 days prior to tomato transplantation measured after 4 weeks relative to control; type: functional
Solanum lycopersicum [10] = test: Increase in Solanum lycopersicum (tomato) plant yield at 760 l/ha applied 12 days prior to transplantation measured after 12 to 14 weeks relative to untreated-control; type: functional

CC1CO1 (stereo unspecified) [PROPYLENE OXIDE]
Activity (Cyperus [1]): 80%
Activity (Solanum lycopersicum [2]): Active
Activity (Solanum lycopersicum [3]): 3.25%
Activity (Solanum lycopersicum [4]): Active
Activity (Cyperus [5]): 80%
Activity (Solanum lycopersicum [6]): 0.51%
Activity (Belonolaimus): Active
fold change (FC) (Solanum lycopersicum [7]): 3.5
Activity (Cyperus [8]): Active
Activity (Cyperus [9]): 80%
fold change (FC) (Solanum lycopersicum [10]): 4.1
